# Measured values from PubChem BioAssay AID180 (DTP/NCI, 2004).
# Values joined by “and” are separate entries in the source; they are usually repeats but may differ in a detail not shown here. Equal values may be shown once.
# Test system: BDF1 mice, Adenocarcinoma 755 s.c., tumor weight T/C
# Assay: NCI In Vivo Anticancer Drug Screen. Data for tumor model Adenocarcinoma 755 (subcutaneous) in B6D2F1 (BDF1) mice
# Conditions: endpoint: mean tumor weight, higher = larger tumour
# Procedure, shortened: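 Tumor-bearing mice receive test compound while controls get vehicle alone. Antitumor effect is scored from survival or tumor dimensions as a T/C quotient.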
# [1] = dose: 50.0 mg/kg/injection, schedule: Q01DX011 (ip), vehicle: saline
# [2] = dose: 62.0 mg/kg/injection, schedule: Q01DX011 (ip), vehicle: carboxymethylcellulose (CMC)
compound,measurement,setting,value
CC(C)CSc1ncnc2nc[nH]c12,T/C,"dose: 6.0 mg/kg/injection, schedule: Q01DX011 (ip), vehicle: other",45 % of control
same,T/C,"dose: 11.0 mg/kg/injection, schedule: Q01DX011 (ip), vehicle: other",19 % of control
same,T/C,"dose: 22.0 mg/kg/injection, schedule: Q01DX011 (ip), vehicle: other",5 % of control
same,T/C,"dose: 31.0 mg/kg/injection, schedule: Q01DX011 (ip), vehicle: other",1 % of control
same,T/C,"dose: 45.0 mg/kg/injection, schedule: Q01DX011 (ip), vehicle: other",7 % of control
Cn1cnc2c(SCc3ccccc3)ncnc21,T/C,"dose: 63.0 mg/kg/injection, schedule: Q01DX011 (ip), vehicle: carboxymethylcellulose (CMC)",3 % of control
same,T/C,"dose: 126.0 mg/kg/injection, schedule: Q01DX011 (ip), vehicle: carboxymethylcellulose (CMC)",1 % of control
same,T/C,"dose: 252.0 mg/kg/injection, schedule: Q01DX011 (ip), vehicle: carboxymethylcellulose (CMC)",1 % of control
CC(=O)[C@H]1CC[C@H]2[C@@H]3C[C@H](F)C4=CC(=O)CC[C@]4(C)[C@H]3C(=O)C[C@]12C,T/C,"dose: 3.5 mg/kg/injection, schedule: Q01DX011 (sc), vehicle: steriod suspending solution",82 % of control
same,T/C,"dose: 7.0 mg/kg/injection, schedule: Q01DX011 (sc), vehicle: steriod suspending solution",66 % of control
same,T/C,"dose: 55.0 mg/kg/injection, schedule: Q01DX011 (sc), vehicle: steriod suspending solution",15 % of control and 20 % of control
same,T/C,"dose: 110.0 mg/kg/injection, schedule: Q01DX011 (sc), vehicle: steriod suspending solution",13 % of control and 14 % of control
same,T/C,"dose: 220.0 mg/kg/injection, schedule: Q01DX011 (sc), vehicle: steriod suspending solution",3 % of control and 8 % of control
CCCCCCCCOP(=O)(N1CC1)N1CC1,T/C,"dose: 0.1 mg/kg/injection, schedule: Q01DX011 (ip), vehicle: saline",75 % of control and 79 % of control
same,T/C,"dose: 0.2 mg/kg/injection, schedule: Q01DX011 (ip), vehicle: saline",65 % of control and 80 % of control
same,T/C,"dose: 1.0 mg/kg/injection, schedule: Q01DX011 (ip), vehicle: saline",29 % of control
same,T/C,"dose: 2.0 mg/kg/injection, schedule: Q01DX011 (ip), vehicle: saline",57 % of control and 66 % of control
same,T/C,"dose: 4.5 mg/kg/injection, schedule: Q01DX011 (ip), vehicle: saline",56 % of control and 66 % of control
CC(C)CCn1cnc2c(SCC(=O)O)nc(N)nc21,T/C,"dose: 20.0 mg/kg/injection, schedule: Q01DX011 (ip), vehicle: methylcellulose (MC)",46 % of control
same,T/C,"dose: 65.0 mg/kg/injection, schedule: Q01DX011 (ip), vehicle: methylcellulose (MC)",56 % of control
same,T/C,"dose: 200.0 mg/kg/injection, schedule: Q01DX011 (ip), vehicle: methylcellulose (MC)",55 % of control
O=S(=O)(O)C(Nc1ccccc1)c1ccccc1 (stereo not given),T/C,"dose: 20.0 mg/kg/injection, schedule: Q01DX011 (ip), vehicle: carboxymethylcellulose (CMC)",119 % of control
same,T/C,"dose: 40.0 mg/kg/injection, schedule: Q01DX011 (ip), vehicle: carboxymethylcellulose (CMC)",91 % of control
same,T/C,"dose: 80.0 mg/kg/injection, schedule: Q01DX011 (ip), vehicle: carboxymethylcellulose (CMC)",70 % of control
CC(=O)c1cc(C)[nH]c1C,T/C,"dose: 29.0 mg/kg/injection, schedule: Q01DX011 (ip), vehicle: carboxymethylcellulose (CMC)",58 % of control
same,T/C,"dose: 57.5 mg/kg/injection, schedule: Q01DX011 (ip), vehicle: carboxymethylcellulose (CMC)",99 % of control
same,T/C,"dose: 115.0 mg/kg/injection, schedule: Q01DX011 (ip), vehicle: carboxymethylcellulose (CMC)",29 % of control
same,T/C,"dose: 115.0 mg/kg/injection, schedule: Q01DX011 (ip), vehicle: methylcellulose (MC)",96 % of control and 77 % of control
O[C@H](CN1CC1)[C@@H](O)CN1CC1,T/C,"dose: 0.19 mg/kg/injection, schedule: Q01DX011 (ip), vehicle: methylcellulose (MC)",50 % of control
same,T/C,"dose: 0.38 mg/kg/injection, schedule: Q01DX011 (ip), vehicle: methylcellulose (MC)",47 % of control
same,T/C,"dose: 0.75 mg/kg/injection, schedule: Q01DX011 (ip), vehicle: methylcellulose (MC)",13 % of control
same,T/C,"dose: 1.5 mg/kg/injection, schedule: Q01DX011 (ip), vehicle: methylcellulose (MC)",8 % of control
Oc1ccc2ccccc2c1N=Nc1ccc(F)cc1,T/C,"dose: 15.0 mg/kg/injection, schedule: Q01DX011 (ip), vehicle: carboxymethylcellulose (CMC)",70 % of control
same,T/C,"dose: 25.0 mg/kg/injection, schedule: Q01DX011 (ip), vehicle: carboxymethylcellulose (CMC)",104 % of control
same,T/C,"dose: 31.0 mg/kg/injection, schedule: Q01DX011 (ip), vehicle: carboxymethylcellulose (CMC)",37 % of control
same,T/C,"dose: 45.0 mg/kg/injection, schedule: Q01DX011 (ip), vehicle: carboxymethylcellulose (CMC)",33 % of control
same,T/C,"dose: 50.0 mg/kg/injection, schedule: Q01DX011 (ip), vehicle: carboxymethylcellulose (CMC)",30 % of control
same,T/C,[1],38 % of control
same,T/C,[2],46 % of control
same,T/C,"dose: 100.0 mg/kg/injection, schedule: Q01DX011 (ip), vehicle: carboxymethylcellulose (CMC)",27 % of control
same,T/C,"dose: 100.0 mg/kg/injection, schedule: Q01DX011 (ip), vehicle: saline",12 % of control
same,T/C,"dose: 200.0 mg/kg/injection, schedule: Q01DX011 (ip), vehicle: saline",22 % of control
same,T/C,"dose: 224.0 mg/kg/injection, schedule: Q01DX011 (ip), vehicle: carboxymethylcellulose (CMC)",9 % of control
same,T/C,"dose: 400.0 mg/kg/injection, schedule: Q01DX011 (ip), vehicle: carboxymethylcellulose (CMC)",12 % of control and 15 % of control
same,T/C,"dose: 400.0 mg/kg/injection, schedule: Q01DX011 (ip), vehicle: saline",15 % of control
same,T/C,"dose: 450.0 mg/kg/injection, schedule: Q01DX011 (ip), vehicle: carboxymethylcellulose (CMC)",17 % of control
same,T/C,"dose: 600.0 mg/kg/injection, schedule: Q01DX011 (ip), vehicle: saline",14 % of control
same,T/C,"dose: 800.0 mg/kg/injection, schedule: Q01DX011 (ip), vehicle: carboxymethylcellulose (CMC)",21 % of control
same,T/C,"dose: 1600.0 mg/kg/injection, schedule: Q01DX011 (ip), vehicle: carboxymethylcellulose (CMC)",8 % of control
Nc1nc(SCc2ccccc2)c2ncn(C3CCCCC3)c2n1,T/C,"dose: 25.0 mg/kg/injection, schedule: Q01DX011 (ip), vehicle: methylcellulose (MC)",113 % of control
same,T/C,"dose: 75.0 mg/kg/injection, schedule: Q01DX011 (ip), vehicle: methylcellulose (MC)",121 % of control
same,T/C,"dose: 225.0 mg/kg/injection, schedule: Q01DX011 (ip), vehicle: methylcellulose (MC)",210 % of control
CC(C)n1cnc2c(Cl)ncnc21,T/C,"dose: 4.0 mg/kg/injection, schedule: Q01DX011 (ip), vehicle: carboxymethylcellulose (CMC)",101 % of control
same,T/C,"dose: 8.0 mg/kg/injection, schedule: Q01DX011 (ip), vehicle: carboxymethylcellulose (CMC)",115 % of control
same,T/C,"dose: 16.0 mg/kg/injection, schedule: Q01DX011 (ip), vehicle: carboxymethylcellulose (CMC)",92 % of control
same,T/C,[2],4 % of control and 11 % of control
same,T/C,"dose: 125.0 mg/kg/injection, schedule: Q01DX011 (ip), vehicle: carboxymethylcellulose (CMC)",5 % of control and 8 % of control
same,T/C,"dose: 250.0 mg/kg/injection, schedule: Q01DX011 (ip), vehicle: carboxymethylcellulose (CMC)",8 % of control
O=C(OCC1OC(n2cnc3c(=O)[nH]cnc32)CC1OC(=O)c1ccccc1)c1ccccc1 (stereo not given),T/C,"dose: 60.0 mg/kg/injection, schedule: Q01DX011 (ip), vehicle: carboxymethylcellulose (CMC)",101 % of control
same,T/C,"dose: 120.0 mg/kg/injection, schedule: Q01DX011 (ip), vehicle: carboxymethylcellulose (CMC)",90 % of control
CN(C)c1ccc(/C=C/c2ccnc3ccccc23)cc1,T/C,"dose: 4.0 mg/kg/injection, schedule: Q01DX011 (ip), vehicle: water",117 % of control
same,T/C,"dose: 8.0 mg/kg/injection, schedule: Q01DX011 (ip), vehicle: water",105 % of control
same,T/C,"dose: 16.0 mg/kg/injection, schedule: Q01DX011 (ip), vehicle: water",72 % of control
C[C@H]1C[C@@H]2[C@H]([C@@H](O)C[C@@]3(C)[C@H]2CC[C@]3(O)C(=O)CO)[C@@]2(C)C=CC(=O)C=C12,T/C,"dose: 14.3 mg/kg/injection, schedule: Q01DX011 (sc), vehicle: steriod suspending solution",21 % of control
same,T/C,"dose: 14.3 mg/kg/injection, schedule: Q01DX011 (sc), vehicle: water",48 % of control and 56 % of control
same,T/C,"dose: 28.5 mg/kg/injection, schedule: Q01DX011 (sc), vehicle: steriod suspending solution",8 % of control
same,T/C,"dose: 28.5 mg/kg/injection, schedule: Q01DX011 (sc), vehicle: water",25 % of control and 47 % of control
same,T/C,"dose: 57.0 mg/kg/injection, schedule: Q01DX011 (sc), vehicle: steriod suspending solution",1 % of control
same,T/C,"dose: 57.0 mg/kg/injection, schedule: Q01DX011 (sc), vehicle: water",5 % of control and 29 % of control
same,T/C,"dose: 114.0 mg/kg/injection, schedule: Q01DX011 (sc), vehicle: steriod suspending solution",1 % of control
same,T/C,"dose: 114.0 mg/kg/injection, schedule: Q01DX011 (sc), vehicle: water",3 % of control
COc1cc2c3c(c4cc(OC)c(OC)cc4c2cc1OC)CN1CCC[C@H]1C3,T/C,"dose: 8.8 mg/kg/injection, schedule: Q01DX006 (ip), vehicle: water",89 % of control and 71 % of control
same,T/C,"dose: 20.0 mg/kg/injection, schedule: Q01DX006 (ip), vehicle: water",50 % of control
COc1ccc(C2=NC(=O)NC2c2ccc(OC)cc2)cc1 (stereo not given),T/C,"dose: 10.0 mg/kg/injection, schedule: Q01DX011 (ip), vehicle: saline",112 % of control
same,T/C,[1],18 % of control
